According to patent US6652633B2, “Fire retardant” (Arch Wood Protection, Inc., priority 2001, dated 2003):

Experiment: potentiometric titration against 0.1 N NaOH with mannitol complexation (equivalence points)
Type: physicochemical
Details: aqueous GUP/boric acid solution complexed with mannitol; potentiometric titration of GUP/boric acid solutions, samples complexed with mannitol; read-out: pKa (equivalence point)
Procedure: The mixture was heated to approximately 48° C. to dissolve all of the solids, and a sample for analysis taken. The temperature of the solution was then raised and maintained between 70° C. and 90° C. for 3.5 hours. Samples of the solution were analyzed by potentiometric titration every hour, and at the end of the 3.5 hour reaction period.
The samples were titrated against approximately 0.1 N NaOH (standardized against a potassium hydrogen phthalate standard from NIST). Because the pKa of GUP is very close to that for boric acid, the samples were each complexed with 10 g of mannitol to form a boric acid ester having a lower pKa that is more easily distinguishable from that of GUP. The results are given in Table 1,below, and plotted on FIG. 1.
Approximately 0.1000 g of solid product was combined with about 10 g mannitol and titrated against 0.1 N NaOH. The mannitol was added to react with the boric acid to for a borate ester, which has a much lower equivalence point than GUP. […] The loss in yield was attributable to the short reaction time allowed in this example. A kinetic analysis was subsequently undertaken, and it was determined that an increase in GUP yield could be obtained by increasing the reaction time, as indicated in Table 4 below.

pKa: 7.25
Compound: N=C(N)NC(N)=O [GUP, guanylurea phosphate]
